Measurements as given in patent publication US11618746B2, “Inhibitors of APOL1 and methods of using same” (Vertex Pharmaceuticals Incorporated, priority 2018, dated 2023).

What follows are molecules tested against T1, APOL1 G1 Protein (Homo sapiens, UniProt O14791, I384M/S342G) (assay: Trypanosoma brucei brucei lysis assay using APOL1 recombinant protein (AlamarBlue viability readout)). Conditions: Trypanosoma brucei brucei (Lister 427 VSG 221 bloodstream form) lysis by 0.05 μg/mL recombinant APOL1 G1, 16 hrs.
T1 sequence (O14791 28-398 S342G/I384M): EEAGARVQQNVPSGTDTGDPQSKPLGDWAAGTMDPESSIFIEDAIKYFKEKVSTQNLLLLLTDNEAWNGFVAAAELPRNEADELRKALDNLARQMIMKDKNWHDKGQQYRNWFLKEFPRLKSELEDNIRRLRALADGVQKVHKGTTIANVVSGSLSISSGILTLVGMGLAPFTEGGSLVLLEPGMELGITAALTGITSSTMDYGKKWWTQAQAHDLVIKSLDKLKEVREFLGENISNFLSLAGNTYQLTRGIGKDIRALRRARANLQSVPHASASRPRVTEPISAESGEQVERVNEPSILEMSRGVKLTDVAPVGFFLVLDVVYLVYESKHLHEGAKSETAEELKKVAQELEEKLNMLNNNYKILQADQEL
Format: cell-based
Source text: Trypanosoma brucei brucei is a blood stream parasite to which human, gorillas and baboon are immune due to the presence of the APOL1 protein in their HDL particles. The protein is uptaken by the parasite via the TbHpHb receptor located in its flagellar pocket and is bonded by the Hpr protein contained in the HDL particles which triggers the receptor endocytosis by the parasite.
Following endocytosis, the formed vesicle containing the HDL particle matures from early to late endosome, and subsequently to lysosome. The concomitant pH change in the lumen of the vesicle triggers the insertion of the APOL1 protein into the membrane of the late endosome/lysosome and hereby triggers lysosomal membrane premeabilisation and as a further downstream event, trypanosome lysis. Trypanosoma brucei brucei is sensitive to lysis by all three APOL1 variants (G0, G1, and G2).
The Trypanosoma brucei brucei lysis assay is a lysis assay of the parasite using recombinant APOL1 protein variant followed by a fluorescent detection method of viability by the addition of AlamarBlue reagent to the assay well, a general metabolic redox indicator (AlamarBlue assay).
Briefly, the AlamarBlue active compound, the resazurin, a blue, water soluble, non-toxic and cell permeable molecule, which can be followed by absorbance, is reduced by various metabolic pathways into resorufin, a red compound which can be followed by either absorbance or fluorescence. The assay allows the calculation of the percent viability (percent of living Trypanosomes remaining in each well) at the end of a lysis relative to the untreated condition by interpolation of fluorescent values (FLU) on a standard curve with a known amount of seeded trypanosome/well.
Trypanosoma brucei brucei (ATCC, Cat. No. PRA-382) • Lister 427 VSG 221 bloodstream form.
Thaw/Expansion Media (ATCC Medium 2834 Modified HMI-9 Medium)
Equipment • E1-Clip Tip pipette 12 channel adjustable 2-125 μL, Cat. No. 4672070BT • ThermoFisher MultiDrop 384, Cat. No. 5840300 • Multidrop • Agilent Bravo, Cat. No. G5409A • Bravo • SpectraMax M5
Trypanosoma brucei brucei Culture
Step 2, Day 4 • Centrifuge at 800×g for 5 minutes at room temperature. • Resuspend in 1 mL media. • Make a 1:25 fold dilution (10 μL/240 μL media). • Count on a hemocytometer (after adding parasites). • Let sit for 1-2 minutes for the parasites to settle. • Count should be approximately 100 viable motile parasites/16 grid or approximately 25×10^6 parasites/flask. • Passage the parasites by adding 1×10^6 parasites/T75 flask in 20 mL media. • Passage the parasites by adding 2.33×10^6 parasites/T175 flask in 46.6 mL media. • For every T75 flask should make enough for approximately 1.5×384 well assay plates. • For every T175 flask should make enough for approximately 3.8×384 well assay plates.
Step 3. Day 6 • Centrifuge at 800×g for 5 minutes. • Resuspend in 3 mL assay media (No phenol red, no FBS) per 75 starting flask. • Resuspend in 7 mL assay media (No phenol red, no FBS) per 175 flask • Make a 1:25 fold dilution. • Count by hemocytometer. • Every T75 flask set up should have approximately 75×10^6 parasites/flask (verify doubling time=8.7 hrs 1 hr). • Every T175 flask set up should have approximately 175×10^6 parasites/flask (verify doubling time=8.7 hrs±1 hr). • Require 46×10^6 parasites per 384 well plate (at 120,000 parasites per well).
Step 2, Day 2 • Centrifuge at 800×g for 5 minutes at room temperature. • Resuspend in 1 mL media. • Make a 1:25 fold dilution (10 L/240 μL media). • Let sit for 1-2 minutes for the parasites to settle. • Count should be approximately 100 viable motile parasites/16 grid or approximately 8×10^6 parasites per flask. • Passage the parasites by adding 1.25×10^6 parasites per T75 flask in 20 mL media. • For every T75 flask set up should have approximately 1.5×384 well assay plates. • For every T175 flask setup should have approximately 3.8×384 well assay plates. […]
For `O=C(CCc1c(-c2ccc(F)cc2)[nH]c2c(F)cc(F)cc12)N[C@@H]1C(=O)NC[C@@H]1O` [Compound 1, 3-[5,7-difluoro-2-(4-fluorophenyl)-1H-indol-3-yl]-N-[(3S,4S)-4-hydroxy-2-oxo-pyrrolidin-3-yl]propanamide], the IC50 was < 250 nM.
`O=C(CCc1c(-c2ccc(F)cc2)[nH]c2c(F)cc(F)cc12)N[C@@H]1C(=O)NC[C@H]1O` [Compound 2, 3-[5,7-difluoro-2-(4-fluorophenyl)-1H-indol-3-yl]-N-[(3S,4R)-4-hydroxy-2-oxo-pyrrolidin-3-yl]propanamide] was tested, and the IC50 was < 250 nM.
For `[2H]C([2H])(C(=O)N[C@@H]1C(=O)NC[C@H]1O)C([2H])([2H])c1c(-c2ccc(F)cc2)[nH]c2c(F)cc(F)cc12` [Compound 88, 2,2,3,3-tetradeutero-3-[5,7-difluoro-2-(4-fluorophenyl)-1H-indol-3-yl]-N-[(3S,4R)-4-hydroxy-2-oxo-pyrrolidin-3-yl]propanamide], the IC50 was < 250 nM.
For `[2H]C(C(=O)N[C@@H]1C(=O)NC[C@H]1O)C([2H])c1c(-c2ccc(F)cc2)[nH]c2c(F)cc(F)cc12` (stereo partly drawn) [Compound 89, 2,3-dideuterio-3-[5,7-difluoro-2-(4-fluorophenyl)-1H-indol-3-yl]-N-[(3S,4R)-4-hydroxy-2-oxo-pyrrolidin-3-yl]propanamide], the IC50 was < 250 nM.
